Experimental data: patent US8415469B2, “Compounds and methods for kinase modulation, and indications therefor” (Plexxikon Inc., priority 2005, dated 2013)

Tests used:
Type in all cases: biochemical
[1] = target: T1, Abl (Homo sapiens, UniProt P00519); assay: AlphaScreen kinase assay, Abl; settings: read-out: activity toward kinase Abl, IC50
T1 construct: P1121. pET-SPEC BI-PTP Abl G227-V515-X; His6 (N); made in house; host or cells: E. coli (PTP1B co-expressed)
T1 sequence (P00519 with tags, fused parts or gaps): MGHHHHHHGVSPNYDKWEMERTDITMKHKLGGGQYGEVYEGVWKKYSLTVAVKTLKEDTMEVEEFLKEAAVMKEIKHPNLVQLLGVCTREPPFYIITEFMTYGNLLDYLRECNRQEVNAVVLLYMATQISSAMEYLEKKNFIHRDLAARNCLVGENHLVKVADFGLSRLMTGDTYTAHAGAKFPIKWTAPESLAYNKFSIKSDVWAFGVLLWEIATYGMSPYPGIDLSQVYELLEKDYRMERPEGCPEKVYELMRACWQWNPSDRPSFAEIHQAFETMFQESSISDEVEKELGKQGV
From the text: (§1) AlphaScreen assay was used to screen additional kinases. The assay is similarly dependent on the phosphorylation of a peptide substrate. In this assay, an antibody that recognizes phosphorylated substrate is bound to an acceptor bead. The peptide substrate is attached to biotin, which binds to a donor head that contains streptavidin. Thus phosphorylated substrate is bound by antibody and streptavidin, bringing the donor and acceptor heads into close proximity when kinase is not inhibited. The donor produces singlet oxygen which results in emission from the acceptor when they are in close proximity. Conversely, when kinase is inhibited, the donor and acceptor beads are not associated and the emission from the acceptor is reduced.
(§2) AlphaScreen assays were done using compounds dissolved in DMSO to a concentration of 20 mM. The compounds were diluted accordingly to the desired final concentrations in each sample well, using 1:3 serial dilution for a total of 8 concentration points.

[2] = target: T2, Ret (Homo sapiens, UniProt P07949); assay: AlphaScreen kinase assay, Ret; settings: read-out: IC50, activity toward kinase Ret
T2 construct: P1378.pET-SF BI-PTP RET H661-R1012 HIS; made in house
T2 sequence (P07949 with tags, fused parts or gaps): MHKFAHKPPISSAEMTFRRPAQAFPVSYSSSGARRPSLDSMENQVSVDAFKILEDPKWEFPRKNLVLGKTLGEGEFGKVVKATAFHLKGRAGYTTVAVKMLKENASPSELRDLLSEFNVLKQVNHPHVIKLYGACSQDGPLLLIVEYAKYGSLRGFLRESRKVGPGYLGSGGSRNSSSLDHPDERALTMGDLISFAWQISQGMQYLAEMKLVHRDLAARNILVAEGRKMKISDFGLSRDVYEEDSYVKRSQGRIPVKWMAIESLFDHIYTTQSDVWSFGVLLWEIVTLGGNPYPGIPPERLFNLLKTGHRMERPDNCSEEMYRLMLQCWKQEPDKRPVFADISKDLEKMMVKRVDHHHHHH

[3] = target: T3, Jnk3 (Homo sapiens, UniProt P53779); assay: AlphaScreen kinase assay, Jnk3; settings: read-out: IC50, activity toward kinase Jnk3
T3 construct: purchased Upstate Biotechnology

[4] = target: T4, Kit (Homo sapiens, UniProt P10721); assay: AlphaScreen kinase assay, Kit; settings: read-out: IC50, activity toward kinase Kit
T4 construct: P1332.N6 BI PTP KIT M552-K948-X COD; His6 (N); made in house; host or cells: E. coli (PTP1B co-expressed)

[5] = target: MAP4K4 (Homo sapiens, UniProt O95819); assay: AlphaScreen kinase assay, MAP4K4; settings: read-out: IC50, activity toward kinase MAP4K4
Method: (§4) AlphaScreen assays were done using compounds dissolved in DMSO to a concentration of 20 mM. The compounds were diluted accordingly to the desired final concentrations in each sample well, using 1:3 serial dilution for a total of 8 concentration points. Plates were prepared such that each kinase reaction is 20 μl in 1× kinase buffer, 5% DMSO and 10 μM ATP. After incubation of the kinase reaction for 1 hour at room temperature, 5 μl of donor beads in stop buffer (50 mM EDTA in 1× kinase buffer) was added, the sample was mixed and incubated for 20 minutes at room temperature before adding 5 μl of acceptor beads in stop buffer. The samples were incubated for 60 minutes at room temperature and the signal per well was read on AlphaQuest reader.

[6] = target: T5, Met (Homo sapiens, UniProt P08581); assay: AlphaScreen kinase assay, Met; settings: read-out: IC50, activity toward kinase Met
T5 construct: P1818.pETN6 BI-PTP MET G1056-G1364-X WT; His6 (N); made in house; host or cells: E. coli (PTP1B co-expressed)
From the text: as §1, §2

[7] = target: T6, FGFR1 (Homo sapiens, UniProt P11362, C488A/C584S); assay: AlphaScreen kinase assay, FGFR1; settings: read-out: IC50, activity toward kinase FGFR
T6 construct: P1351.pET N6 BI-PTP FGFR A458-E765-X C488A, C584S; made in house; host or cells: E. coli (PTP1B co-expressed)

[8] = target: T7, Src (Homo sapiens, UniProt P12931); assay: AlphaScreen kinase assay, Src; settings: read-out: IC50, activity toward kinase Src
T7 construct: P1144. pET-N6 BI-PTP SRC V86-L536-X; made in house

[9] = target: T8, Kdr (Homo sapiens, UniProt P35968); assay: Z'-Lyte FRET kinase assay (Invitrogen), Kdr; settings: read-out: IC50, activity toward kinase Kdr
T8 construct: purchased Invitrogen (assay run by Invitrogen)

[10] = target: T9, Pyk2 (Homo sapiens, UniProt Q14289); assay: AlphaScreen kinase assay, Pyk2; settings: read-out: IC50, activity toward kinase Pyk2
T9 construct: purchased Upstate Biotechnology

[11] = target: T10, B-Raf V600E (Homo sapiens, UniProt P15056, V600E); assay: AlphaScreen kinase assay, B-Raf V600E; settings: read-out: IC50, activity toward kinase B-Raf V600E
T10 construct: P4254. pFastBacBD-CDC37 BRAF D437-K722-X, V600E; His6 with pFastBac HT leader (TEV site) (N); made in house; host or cells: Sf9 (baculovirus; chaperone CDC37 co-expressed)

[12] = target: T11, Jnk1 (Homo sapiens, UniProt P45983); assay: AlphaScreen kinase assay, Jnk1; settings: read-out: IC50, activity toward kinase Jnk1
T11 construct: purchased Upstate Biotechnology

[13] = target: T12, Fms (Homo sapiens, UniProt P07333); assay: AlphaScreen kinase assay, Fms; settings: read-out: IC50, activity toward kinase Fms
T12 construct: purchased Upstate Biotechnology

[14] = target: T13, Flt1 (Homo sapiens, UniProt P17948); assay: AlphaScreen kinase assay, Flt1; settings: read-out: IC50, activity toward kinase Flt1
T13 construct: P1826.pETN6 BI-PTP FLT1 M799-D1165-X WT; His6 (N); made in house; host or cells: E. coli (PTP1B co-expressed)
T13 sequence (P17948 with tags, fused parts or gaps): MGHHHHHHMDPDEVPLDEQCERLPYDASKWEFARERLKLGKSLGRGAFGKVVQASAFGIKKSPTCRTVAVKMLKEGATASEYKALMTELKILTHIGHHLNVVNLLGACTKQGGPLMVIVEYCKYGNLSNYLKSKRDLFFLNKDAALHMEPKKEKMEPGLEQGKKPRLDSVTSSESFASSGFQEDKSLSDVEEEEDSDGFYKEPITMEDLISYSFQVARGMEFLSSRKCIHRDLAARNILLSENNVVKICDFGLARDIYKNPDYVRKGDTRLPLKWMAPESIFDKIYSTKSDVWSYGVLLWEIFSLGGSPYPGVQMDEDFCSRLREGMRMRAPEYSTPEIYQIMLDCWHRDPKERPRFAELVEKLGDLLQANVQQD

[15] = target: T14, B-Raf (Homo sapiens, UniProt P15056); assay: AlphaScreen kinase assay, B-Raf; settings: read-out: IC50, activity toward kinase B-Raf
T14 construct: purchased Upstate Biotechnology

[16] = target: T15, c-Raf-1 (Homo sapiens, UniProt P04049); assay: AlphaScreen kinase assay, c-Raf-1; settings: read-out: IC50, activity toward kinase c-Raf-1
T15 construct: purchased Upstate Biotechnology
Method: as §4

[17] = target: T16, Jnk2 (Homo sapiens, UniProt P45984); assay: AlphaScreen kinase assay, Jnk2; settings: read-out: IC50, activity toward kinase Jnk2
T16 construct: purchased Roche Protein Expression Group (Indianapolis, IN)
How it was run: (§3)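 Inhibition reads as diminished acceptor emission, since unphosphorylated peptide fails to bridge antibody acceptor beads and streptavidin donor beads. Titration: eight points, 1:3 steps, stocks at 20 mM in DMSO.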

[18] = target: T17, Fak (Homo sapiens, UniProt Q05397); assay: AlphaScreen kinase assay, Fak; settings: read-out: IC50, activity toward kinase Fak
T17 construct: P1358.pFastBacHtb FAK S411-Q686-X; His6 with pFastBacHTb leader (TEV site) (N); made in house; host or cells: Sf9 (baculovirus)

[19] = target: T18, Btk (Homo sapiens, UniProt Q06187); assay: Z'-Lyte FRET kinase assay (Invitrogen), Btk; settings: read-out: IC50, activity toward kinase Btk
T18 construct: purchased Invitrogen (assay run by Invitrogen)

[20] = target: T19, Zap70 (Homo sapiens, UniProt P43403); assay: AlphaScreen kinase assay, Zap70; settings: read-out: IC50, activity toward kinase Zap70
T19 construct: P1868.pFastBac1 ZAP70 D327-G606 HIS, WT; His7 (HHHHHHH) (C); made in house
T19 sequence (P43403 with tags, fused parts or gaps): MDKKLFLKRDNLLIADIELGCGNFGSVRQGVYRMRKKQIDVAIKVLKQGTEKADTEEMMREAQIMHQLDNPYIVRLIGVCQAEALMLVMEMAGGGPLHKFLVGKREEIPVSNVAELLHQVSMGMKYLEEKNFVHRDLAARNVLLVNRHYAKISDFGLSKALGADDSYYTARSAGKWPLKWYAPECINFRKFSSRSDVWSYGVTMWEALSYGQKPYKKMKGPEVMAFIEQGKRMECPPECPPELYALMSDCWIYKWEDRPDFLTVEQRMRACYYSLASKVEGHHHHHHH
How it was run: as §3

[21] = target: T20, Yes (Homo sapiens, UniProt P07947); assay: Z'-Lyte FRET kinase assay (Invitrogen), Yes; settings: read-out: IC50, activity toward kinase Yes
T20 construct: purchased Invitrogen (Carlsbad, Calif.), screening service
How it was run: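 Each kinase phosphorylated a FRET peptide (2 μM) at 10 μM ATP in 50 mM HEPES pH 7.5, 50 mM MgCl2, 5 mM EGTA, 0.05% BRIJ-35 with 1% DMSO, 1 h at room temperature. After a 1 h protease development step, coumarin/fluorescein emission ratio was read across serial compound dilutions.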

Measured: IC50

T7 sequence (P12931 with tags, fused parts or gaps): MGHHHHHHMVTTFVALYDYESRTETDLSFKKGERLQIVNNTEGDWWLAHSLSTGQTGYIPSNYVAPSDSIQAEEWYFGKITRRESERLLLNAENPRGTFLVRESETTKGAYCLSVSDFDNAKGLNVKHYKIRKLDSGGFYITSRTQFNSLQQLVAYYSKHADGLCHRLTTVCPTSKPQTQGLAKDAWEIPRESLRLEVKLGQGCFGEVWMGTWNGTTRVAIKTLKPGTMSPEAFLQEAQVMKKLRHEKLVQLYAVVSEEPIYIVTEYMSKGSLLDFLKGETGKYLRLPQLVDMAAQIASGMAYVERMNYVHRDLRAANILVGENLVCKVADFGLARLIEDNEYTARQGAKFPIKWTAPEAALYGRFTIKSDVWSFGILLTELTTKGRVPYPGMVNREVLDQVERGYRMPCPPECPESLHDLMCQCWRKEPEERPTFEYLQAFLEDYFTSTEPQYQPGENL
T4 sequence (P10721 with tags, fused parts or gaps): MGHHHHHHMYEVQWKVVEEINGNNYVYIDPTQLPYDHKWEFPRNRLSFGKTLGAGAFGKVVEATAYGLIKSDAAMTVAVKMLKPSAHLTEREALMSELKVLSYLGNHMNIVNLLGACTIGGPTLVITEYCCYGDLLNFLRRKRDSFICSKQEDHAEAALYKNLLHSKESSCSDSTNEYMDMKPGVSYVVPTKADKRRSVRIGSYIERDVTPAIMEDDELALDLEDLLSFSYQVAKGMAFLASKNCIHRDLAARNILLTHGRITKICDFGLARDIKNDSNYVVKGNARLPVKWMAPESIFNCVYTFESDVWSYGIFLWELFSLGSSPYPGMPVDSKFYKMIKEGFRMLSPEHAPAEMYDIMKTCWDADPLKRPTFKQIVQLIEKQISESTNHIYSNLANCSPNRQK
T9 sequence (Q14289 whole entry): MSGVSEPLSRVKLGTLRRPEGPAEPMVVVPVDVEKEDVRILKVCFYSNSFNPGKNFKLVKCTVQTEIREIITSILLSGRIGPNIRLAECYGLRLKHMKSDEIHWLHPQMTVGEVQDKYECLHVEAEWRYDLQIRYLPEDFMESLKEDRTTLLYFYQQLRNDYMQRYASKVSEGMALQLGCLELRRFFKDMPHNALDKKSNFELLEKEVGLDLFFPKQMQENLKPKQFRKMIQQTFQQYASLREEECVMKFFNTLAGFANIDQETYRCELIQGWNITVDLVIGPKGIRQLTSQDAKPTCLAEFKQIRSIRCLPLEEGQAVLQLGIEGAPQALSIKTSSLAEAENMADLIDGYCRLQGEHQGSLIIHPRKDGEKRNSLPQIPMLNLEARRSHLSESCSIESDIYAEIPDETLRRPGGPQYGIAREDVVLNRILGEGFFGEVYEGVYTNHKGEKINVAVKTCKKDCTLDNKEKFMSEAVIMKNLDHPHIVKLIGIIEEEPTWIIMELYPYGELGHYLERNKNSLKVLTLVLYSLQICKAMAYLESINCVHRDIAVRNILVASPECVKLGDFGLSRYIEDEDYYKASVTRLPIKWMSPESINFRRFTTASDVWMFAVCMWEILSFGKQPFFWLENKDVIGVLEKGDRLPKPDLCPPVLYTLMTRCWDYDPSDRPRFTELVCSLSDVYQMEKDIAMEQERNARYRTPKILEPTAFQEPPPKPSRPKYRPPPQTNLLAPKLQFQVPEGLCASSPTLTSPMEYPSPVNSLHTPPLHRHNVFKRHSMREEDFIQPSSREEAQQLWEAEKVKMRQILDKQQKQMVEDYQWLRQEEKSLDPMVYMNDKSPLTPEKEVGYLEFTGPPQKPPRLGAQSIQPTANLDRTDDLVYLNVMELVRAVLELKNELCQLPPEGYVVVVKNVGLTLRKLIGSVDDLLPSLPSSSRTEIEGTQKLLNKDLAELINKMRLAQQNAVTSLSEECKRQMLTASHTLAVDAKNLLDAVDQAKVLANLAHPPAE
T5 sequence (P08581 with tags, fused parts or gaps): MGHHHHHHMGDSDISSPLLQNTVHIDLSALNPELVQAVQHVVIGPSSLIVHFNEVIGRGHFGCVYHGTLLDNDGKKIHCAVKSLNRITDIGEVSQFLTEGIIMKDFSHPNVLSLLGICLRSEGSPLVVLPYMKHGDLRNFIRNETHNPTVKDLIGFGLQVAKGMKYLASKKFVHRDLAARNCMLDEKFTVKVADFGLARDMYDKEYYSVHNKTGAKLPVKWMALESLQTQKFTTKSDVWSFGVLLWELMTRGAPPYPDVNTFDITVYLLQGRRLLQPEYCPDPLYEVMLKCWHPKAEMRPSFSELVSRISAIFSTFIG
T14 sequence (P15056 whole entry): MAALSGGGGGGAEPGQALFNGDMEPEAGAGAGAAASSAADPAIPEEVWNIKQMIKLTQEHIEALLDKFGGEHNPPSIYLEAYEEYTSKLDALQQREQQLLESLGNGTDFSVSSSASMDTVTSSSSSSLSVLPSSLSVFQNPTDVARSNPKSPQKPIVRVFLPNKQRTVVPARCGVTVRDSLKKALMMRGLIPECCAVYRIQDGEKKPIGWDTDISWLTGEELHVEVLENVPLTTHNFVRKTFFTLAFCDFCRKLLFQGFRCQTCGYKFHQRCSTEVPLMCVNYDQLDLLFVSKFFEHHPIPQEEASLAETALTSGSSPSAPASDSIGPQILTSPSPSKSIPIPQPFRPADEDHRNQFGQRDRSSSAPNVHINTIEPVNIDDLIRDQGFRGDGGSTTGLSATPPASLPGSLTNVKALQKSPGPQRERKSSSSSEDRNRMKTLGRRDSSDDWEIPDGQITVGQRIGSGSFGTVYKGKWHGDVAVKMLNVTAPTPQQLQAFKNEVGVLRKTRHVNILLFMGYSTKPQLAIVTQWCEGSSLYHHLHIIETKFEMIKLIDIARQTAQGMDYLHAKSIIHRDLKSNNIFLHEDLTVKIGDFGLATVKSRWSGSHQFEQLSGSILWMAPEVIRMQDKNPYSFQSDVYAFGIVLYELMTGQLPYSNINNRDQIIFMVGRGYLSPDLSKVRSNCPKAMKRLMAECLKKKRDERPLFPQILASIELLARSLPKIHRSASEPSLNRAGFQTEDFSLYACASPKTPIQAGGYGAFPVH
T6 sequence (P11362 458-765 C488A/C584S): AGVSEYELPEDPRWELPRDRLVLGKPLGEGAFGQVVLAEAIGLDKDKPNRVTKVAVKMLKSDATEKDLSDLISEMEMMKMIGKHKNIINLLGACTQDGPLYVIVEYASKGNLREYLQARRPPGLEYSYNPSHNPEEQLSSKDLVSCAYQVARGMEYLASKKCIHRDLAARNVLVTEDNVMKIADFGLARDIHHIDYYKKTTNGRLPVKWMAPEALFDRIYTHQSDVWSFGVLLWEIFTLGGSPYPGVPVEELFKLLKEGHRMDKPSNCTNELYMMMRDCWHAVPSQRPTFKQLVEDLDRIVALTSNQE
T3 sequence (P53779 whole entry): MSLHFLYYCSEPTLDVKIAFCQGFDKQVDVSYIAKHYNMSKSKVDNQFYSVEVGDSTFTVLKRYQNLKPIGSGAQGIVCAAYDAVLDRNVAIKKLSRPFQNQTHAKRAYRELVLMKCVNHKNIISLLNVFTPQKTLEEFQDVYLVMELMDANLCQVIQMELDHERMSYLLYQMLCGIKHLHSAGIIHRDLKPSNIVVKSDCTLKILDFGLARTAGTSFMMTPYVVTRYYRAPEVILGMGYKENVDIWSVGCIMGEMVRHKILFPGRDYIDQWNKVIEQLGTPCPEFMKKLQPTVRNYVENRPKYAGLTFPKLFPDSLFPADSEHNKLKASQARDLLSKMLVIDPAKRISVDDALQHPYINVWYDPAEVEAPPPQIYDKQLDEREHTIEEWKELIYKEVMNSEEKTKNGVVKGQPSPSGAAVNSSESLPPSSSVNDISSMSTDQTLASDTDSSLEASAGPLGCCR
T10 sequence (P15056 with tags, fused parts or gaps V600E): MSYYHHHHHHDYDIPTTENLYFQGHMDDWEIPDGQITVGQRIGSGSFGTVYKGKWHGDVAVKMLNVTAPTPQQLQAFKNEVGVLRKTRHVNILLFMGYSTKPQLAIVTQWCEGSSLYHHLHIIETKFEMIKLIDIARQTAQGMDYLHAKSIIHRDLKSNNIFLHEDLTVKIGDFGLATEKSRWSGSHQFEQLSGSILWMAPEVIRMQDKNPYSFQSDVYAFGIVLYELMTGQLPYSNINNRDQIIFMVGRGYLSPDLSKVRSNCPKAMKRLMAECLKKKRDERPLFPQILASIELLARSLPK
T15 sequence (P04049 whole entry): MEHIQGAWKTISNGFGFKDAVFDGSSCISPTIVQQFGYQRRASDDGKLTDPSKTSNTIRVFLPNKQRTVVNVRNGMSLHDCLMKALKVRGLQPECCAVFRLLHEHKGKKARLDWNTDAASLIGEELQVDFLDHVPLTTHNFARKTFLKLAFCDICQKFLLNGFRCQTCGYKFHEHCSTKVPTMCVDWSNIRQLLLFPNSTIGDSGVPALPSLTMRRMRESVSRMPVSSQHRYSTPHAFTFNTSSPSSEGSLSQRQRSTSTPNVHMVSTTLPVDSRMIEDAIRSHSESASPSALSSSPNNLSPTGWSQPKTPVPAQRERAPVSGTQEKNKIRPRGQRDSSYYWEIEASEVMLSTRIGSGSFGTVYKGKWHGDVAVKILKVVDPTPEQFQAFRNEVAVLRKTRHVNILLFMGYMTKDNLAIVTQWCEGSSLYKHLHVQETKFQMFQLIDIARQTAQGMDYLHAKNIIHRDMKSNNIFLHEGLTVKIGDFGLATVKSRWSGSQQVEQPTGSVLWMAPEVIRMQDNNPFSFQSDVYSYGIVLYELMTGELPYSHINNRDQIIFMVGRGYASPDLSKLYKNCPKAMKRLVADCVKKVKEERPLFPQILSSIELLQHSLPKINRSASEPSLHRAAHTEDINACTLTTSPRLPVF
T17 sequence (Q05397 411-686): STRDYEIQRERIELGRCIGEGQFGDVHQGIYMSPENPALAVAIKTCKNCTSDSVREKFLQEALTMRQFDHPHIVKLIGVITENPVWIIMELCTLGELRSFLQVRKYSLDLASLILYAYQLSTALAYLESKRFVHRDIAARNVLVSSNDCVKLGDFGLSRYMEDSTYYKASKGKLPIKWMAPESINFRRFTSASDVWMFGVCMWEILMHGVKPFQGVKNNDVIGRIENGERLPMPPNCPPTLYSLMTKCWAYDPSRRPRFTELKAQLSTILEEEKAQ

Cc1ccccc1C(=O)c1c[nH]c2ncc(-c3ccc(C(N)=O)cc3)cc12 [Compound P-1011]
≤ 10 µM: [1] | [2] | [3]

Cc1cc(C(=O)c2c[nH]c3ncc(-c4cccnc4)cc23)n(C)n1 [Compound P-0800]
≤ 10 µM: [1] | [4] | [5]

COc1cc(Nc2cnc3[nH]ccc3c2)cc(OC)c1OC [Compound P-1092]
≤ 10 µM: [6]

Cc1ccc(S(=O)(=O)NCc2c[nH]c3ncc(-c4ccsc4)cc23)cc1 [Compound P-1127]
≤ 10 µM: [1]

CCOc1cccc(Cc2c[nH]c3ncc(-c4ccsc4)cc23)c1 [Compound P-0562]
≤ 10 µM: [7] | [1] | [8] | [9] | [3] | [4] | [10]

Cc1ccccc1C(=O)c1c[nH]c2ncc(-c3ccsc3)cc12 [Compound P-0244]
≤ 10 µM: [7] | [11] | [12] | [1] | [2] | [13] | [8] | [3] | [14] | [4]

Cc1ccc(F)cc1C(=O)c1c[nH]c2ncc(-c3ccsc3)cc12 [Compound P-0671]
≤ 10 µM: [7] | [11] | [1] | [2] | [3] | [4]

O=C(c1cc(O)ccc1F)c1c[nH]c2ncc(-c3ccsc3)cc12 [Compound P-0604]
≤ 10 µM: [11] | [1] | [2] | [15] | [3] | [4] | [16]

Cc1cccc(-c2c(CSCc3ccccc3)[nH]c3ncccc23)c1 [Compound P-1132]
≤ 10 µM: [6]

O=C(c1cc(O)ccc1F)c1c[nH]c2nccc(Cl)c12 [Compound P-0794]
≤ 10 µM: [11] | [1] | [2] | [15] | [4] | [16]

Cc1ccc(Nc2cnc3[nH]ccc3c2)cc1 [Compound P-1037]
≤ 10 µM: [6]

Cc1cc(C(=O)c2c[nH]c3ncc(-c4cccc(N)c4)cc23)n(C)n1 [Compound P-1115]
≤ 10 µM: [1] | [2]

Cc1ccccc1C(=O)c1c[nH]c2ncc(-c3cccnc3)cc12 [Compound P-0623]
≤ 10 µM: [7] | [11] | [1] | [2] | [17] | [8] | [9] | [4]

c1csc(Sc2c[nH]c3ncccc23)c1 [Compound P-0529]
≤ 10 µM: [1] | [10]

COc1cccc(Cc2c[nH]c3nccc(Br)c23)c1 [Compound P-0501]
≤ 10 µM: [7] | [1] | [2] | [13] | [18] | [8] | [4] | [10]

COc1ccc(F)c(C(=O)c2c[nH]c3ncc(-c4cccc(/C=C/C(=O)O)c4)cc23)c1 [Compound P-0047]
≤ 10 µM: [11] | [1] | [2] | [19] | [20] | [21] | [3]

O=C(NCc1ccccn1)NCc1c[nH]c2ncccc12 [Compound P-0761]
≤ 10 µM: [2] | [6]

Cc1ccc(F)cc1C(=O)c1c[nH]c2ncc(-c3cccnc3)cc12 [Compound P-0693]
≤ 10 µM: [7] | [11] | [1] | [2] | [15] | [4]
